Measurements published in patent publication US8632914B2, “Triazolium and imidazolium salts and uses thereof” (University Health Network, priority 2008, dated 2014).
Read-outs that look alike come from different tables or passages of the source.

Legend:
[1] = test system: P. falciparum; test: Anti-Plasmodium activity: viability of P. falciparum cultures (pLDH enzyme assay); assay type: cell-based; conditions: read-out: IC50 (μM) P. falciparum
Method: P. falciparum cultures were grown in O+ blood obtained by venipuncture of volunteers. Cultures of the laboratory line ItG were maintained by the method of Trager and Jensen (Trager, W.; Jensen, J. Science 1976, 193, 673) using RPM, 1640 supplemented with 10% human serum (a kind gift obtained under ethical consent from the Chemo Day Care department of the Princess Margaret Hospital, Toronto, Canada) and 50 μM hypoxanthine (RPMI-A). The effects of the test compounds on the viability of P. falciparum cultures were determined using a Lactate Dehydrogenase (LDH) enzyme assay specific to the enzyme found in Plasmodium falciparum (pLDH) (Prudhomme, J. G.; Sherman, I. W. J Immunol Methods 1999, 229(1-2), 169; Makler, M. T.; Ries, J. M.; Williams, J. A.; Bancroft, J. E.; Piper, R. C.; Gibbins, B. L.; Hinrichs, D. J. Am J Trop Med Hyg 1993, 48(6), 739). Briefly, compounds to be tested were dissolved in DMSO afford a solution having a concentration of 10 mg/mL. Two-fold serial dilutions were then produced in 50 μL of RPMI-A in a 96 well plate and then 50 μL of parasite culture (2% hematocrit, 2% parasitemia) were added to each well and the plates were then incubated at 37° C. in 95% N2, 3% CO2, and 2% O2 for 72 hr. The contents of the wells were then re-suspended using a multi-channel pipettor and a 15 μL sample was removed from each well and was added to 100 μL of pLDH enzyme assay mixture (Prudhomme, J. G.; Sherman, I. W. J Immunol Methods 1999, 229(1-2), 169). After 1 hr the absorbance of the wells at 650 nm was determined using a ThermoMax microplate reader (Molecular Devices, Sunnyvale, Calif.). The IC50 values of individual compounds were determined using a non-linear regression analysis of the data^19 using the computer program SigmaPlot (Jandel Scientific) and are reported in Table 1. The IC50 values represent the mean±standard error calculated from four independent determinations. To verify if the poor viability of the cultures was related to inhibited merozoite invasion, samples were taken from treated wells and the presence of extracellular merozoites was confirmed by microscopy.

[2] = test system: CHO cells; test: Viability of CHO cells (MTT); assay type: cell-based; conditions: Cricetulus griseus, read-out: IC50 (μM) CHO cells
Method: CHO cells (ATCC, Manassas, Va.) were grown in RPMI-1640 supplemented with 10% fetal calf serum (Sigma, St. Louis, Mo.), 25 mM HEPES and gentimicin (RPMI-10). Cells were seeded in 96 well plates and grown to 50% confluency in 100 μL of RPMI-10 per well prior to the addition of either DMSO alone, or a 10 mg/mL solution of a test compound of the disclosure in DMSO. Compound gradients were prepared by adding 90 μL of RPMI-10 mixed with 10 μL of compound solution to the first well in the series, mixing, transferring 100 μL to the next well, and repeating until the next-to-last well was reached. After 48 hrs, the viability of the cells was determined by discarding the media in the wells and adding 100 μL of 10 mg/mL of 3-[4,5-dimethylthiazol-2-yl]-2,5-diphenyltetrazolium bromide (MTT, Sigma, St. Louis, Mo.) in RPMI-10, incubating the plates for a further hour, and then removing the media and adding 100 μL of DMSO and reading the absorbance at 650 nm (Campling, B. G.; Pym, J.; Galbraith, P. R.; Cole, S. P. Leuk Res 1988, 12(10), 823). The IC50 values of individual compounds were determined using a non-linear regression analysis of the dose-response curve using the computer program SigmaPlot (Jandel Scientific) and are reported in Table 1.

[3] = strain line ItG, 72 hr incubation, pLDH assay, mean of four determinations ± standard error
[4] = CHO cells, 48 hrs, MTT, mean of four determinations ± standard error

Structure (SMILES) | melting point | IC50 [1, 3] | IC50 [2, 4] | IC50 ([1]; 72 h) | IC50 ([2]; CHO, 48 h)
Cl.Cl.c1cn(CCCCCCCCCCCCCCn2ccnc2)cn1 | 142 to 143 °C | – | – | – | –
Cl.Cl.c1cn(CCCCCCCCn2ccnc2)cn1 | 176 to 177 °C | – | – | – | –
O=[N+]([O-])c1ccc(Cn2cc[n+](Cc3ccc([N+](=O)[O-])cc3)c2)cc1 [QT85, 1,3-Bis-(4-nitrobenzyl)imidazolium bromide] | – | 9 ± 2 µM | 227 ± 7 µM | – | –
O=C(Cn1cc[n+](CC(=O)c2ccc(Cc3ccccc3)cc2)c1)c1ccc(Cc2ccccc2)cc1 [QT97, 1,3-Bis-[2-oxo-2-(4-benzylphenyl)ethyl]imidazolium bromide] | – | 0.5 ± 0.1 µM | 4.3 ± 0.3 µM | – | –
Brc1ccccc1Cn1cc[n+](Cc2ccccc2Br)c1 [QT82, 1,3-Bis-(2-bromobenzyl)imidazolium bromide] | – | 1.4 ± 0.6 µM | 125 ± 10 µM | – | –
C[n+]1ccn(CCCOc2ccc(OCCCn3cc[n+](C)c3)cc2)c1 [QT123, 1,4-Bis[3-(3-methylimidazolium-1-yl)propoxy]benzene diiodide] | – | 0.045 ± 0.004 µM | 113 ± 12 µM | – | –
Ic1ccc(Cn2cc[n+](Cc3ccc(I)cc3)c2)cc1 [QT78, 1,3-Bis-(4-iodobenzyl)imidazolium bromide] | – | 0.35 ± 0.06 µM | 33 ± 1 µM | – | –
C[n+]1ccn(CCCCCCCCCCCn2cc[n+](C)c2)c1 [QT118, 1,11-Bis-(3-methylimidazolium-1-yl)undecane diiodide] | – | 0.0061 ± 0.0006 µM | 42 ± 3 µM | – | –
c1ccc(Cn2cc[n+](Cc3ccccc3)c2)cc1 [QT68, 1,3-Dibenzylimidazolium bromide] | – | 16 ± 1 µM | 191 ± 3 µM | – | –
Fc1ccc(Cn2cc[n+](Cc3ccc(F)cc3)c2)cc1 [QT92, 1,3-Bis-(4-fluorobenzyl)imidazolium bromide] | – | 17 ± 3 µM | 56 ± 4 µM | – | –
C[n+]1ccn(-c2ccc(-n3cc[n+](C)c3)cc2)c1 [QT114, 1,4-Bis-(3-methylimidazolium-1-yl)benzene diiodide] | – | 11.2 ± 0.5 µM | 317 ± 64 µM | – | –
c1ccc(Cn2c[n+](Cc3ccccc3)c(-c3ccccc3)c2-c2ccccc2)cc1 [QT105, 1,3-dibenzyl-4,5-diphenyl-1H-imidazolium bromide] | – | 1.4 ± 0.1 µM | 21 ± 2 µM | – | –
C[n+]1cn(-c2ccc(-c3ccc(-n4c[n+](C)c5ccccc54)cc3)cc2)c2ccccc21 [QT110, 4,4′-Bis-(3-methylbenzimidazolium-1-yl)biphenyl diiodide] | – | 0.07 ± 0.01 µM | 98 ± 24 µM | – | –
Brc1cccc(Cn2cc[n+](Cc3cccc(Br)c3)c2)c1 [QT83, 1,3-Bis-(3-bromobenzyl)imidazolium bromide] | – | 1.05 ± 0.06 µM | 132 ± 22 µM | – | –
Clc1ccccc1Cn1cc[n+](Cc2ccccc2Cl)c1 [QT90, 1,3-Bis-(2-chlorobenzyl)imidazolium bromide] | – | 2 ± 0.2 µM | 110 ± 23 µM | – | –
C[n+]1ccn(CCCCCCCCCCCCCCCCCCCCn2cc[n+](C)c2)c1 [QT116, 1,20-Bis-(3-methylimidazolium-1-yl)eicosane diiodide] | 78 to 80 °C | 0.0021 ± 0.0005 µM | 1.4 ± 0.2 µM | – | –
C[n+]1ccn(CCCCCCCCCCCCCCCn2cc[n+](C)c2)c1 [QT101, 1,15-Bis-(3-methylimidazolium-1-yl)pentadecane diiodide] | – | 0.002 ± 0.001 µM | 1.2 ± 0.2 µM | – | –
C[n+]1ccn(CCCCn2cc[n+](C)c2)c1 [QT86, 1,4-Bis-(3-methylimidazolium-1-yl)butane diiodide] | – | 67 ± 22 µM | 122 ± 3 µM | – | –
COc1ccc(Cn2cc[n+](Cc3ccc(OC)cc3)c2)cc1 [QT79, 1,3-Bis-(4-methoxybenzyl)imidazolium chloride] | – | – | – | 5 ± 1 µM | 30.6 ± 0.7 µM
Brc1ccc(C[n+]2ccn(Cc3ccccc3)c2)cc1 [QT75, 1-Benzyl-3-(4-bromobenzyl)imidazolium bromide] | – | 2.9 ± 0.9 µM | 484.5 ± 0.9 µM | – | –
